Where a SMILES comes first, the peptide text is derived from it. The star is where a group is joined. Cbz = O=C(OCc1ccccc1)*
Legend:
Assay type in all cases: cell-based, human
[1] = tested on: Salmonella-infected 624-38 melanoma cells; assay: IFN-gamma release by CTL-Vax on Thp1 loaded with conditioned supernatant; conditions: supernatant of inhibitor-treated Salmonella-infected 624-38 loaded on Thp1, ratio 1:1, 72 hours
Method: (§1) In order to elucidate the Salmonella mechanism of action, the present inventors employed several inhibitors in their in vitro experiments, including: Heptanol (Sigma, 1 mM), hemichannel blocker; proteasome inhibitors: MG132 (Sigma, 20 μM) and Epoxomycin (Sigma, 500 nM); UPR-inhibitor 4μ8c (10 μM).
(§2) Human acute monocytic leukemia Thp1 cell line was loaded either with antigens at different concentration (20 uM-1.25 uM) or with conditioned medium and used to stimulate CTL-Vax (ratio 1:1). Cells supernatant was collected after 72 hours and IFN-gamma production was measured by ELISA (R&D). IFN-gamma released by CTLs co-cultured with unloaded Thp1 (spontaneous IFN-gamma release) was subtracted from IFN measured upon Ag-stimulation. Specificity of the activation was further assessed using an HLA-I pan blocker as control (10 ug/ml, Clone W6/32).

[2] = tested on: Salmonella-infected 624-38 melanoma cells; assay: HLA-A*02:01-peptide binding assay on T2 cells (peptide release into supernatant); conditions: 624-38 cells treated with inhibitor; 4μ8c 10 μM, MG132 20 μM, Epoxomycin 500 nM
Method: as §1
Single bacterial colonies were grown overnight and restarted the next day to reach an absorbance at 600 nm of 0.6 corresponding to 0.6×10^9 colony-forming units (CFUs)/ml. Murine and human melanoma cells were incubated with bacteria for 90 minutes, at a cell-to-bacteria ratio of 1:50, in the appropriate medium added with L-Glutamine without antibiotics. Cells were washed with medium and incubated in medium supplemented with gentamicin ([…]) for 18 hours to kill extracellular bacteria. At the end of the incubation cells were harvested and then lysed for protein analysis while supernatant was collected and filtered through 0.22 μm filter eliminate potentially still alive bacteria.
To assess peptides enrichment in the supernatant from tumor cell cultures following Salmonella treatment, T2 cells were incubated overnight at 37° C. at 2×10^5 cells/well in serum-free RPMI medium either with 100 μL of supernatant or with Mart-126-35 peptide (1 μM and 10 μM) as a positive control. […]

CTL-Vax = assay: IFN-gamma assay for peptide recognition by CTLs (peptide-loaded Thp1, ELISA); conditions: synthesized peptides loaded on Thp1 at 20 μM-1.25 μM, ratio 1:1, 72 hours
Method: as §2

| Compound | CTL-Vax activation upon supernatant stimulation (IFN-gamma release) [1] | peptide release prompted by Salmonella infection (HLA-A*02:01 MFI on T2 cells) [2] | IFN-gamma production by CTL-VAX (CTL-Vax) |
| --- | --- | --- | --- |
| Cc1cc(=O)oc2c(C=O)c(O)ccc12 [4μ8c] | lower activation | significantly impaired peptide release | – |
| CC(C)C[C@@H](C=O)NC(=O)[C@H](CC(C)C)NC(=O)[C@H](CC(C)C)NC(=O)OCc1ccccc1 [MG132] (Cbz-Leu-Leu-Leu-aldehyde) | affected | affected | – |
| TMA747-44: candidate peptide from melanoma secretome that did not induce IFN-gamma production by CTL-VAX (AAGKGPLATGGIKKSGKK) | – | – | all except TMA747-44 (SEQ ID NO. 5) were able to induce IFN-gamma production |

— patent publication US20230381291A1, “TUMOR-ASSOCIATED PEPTIDES AND USES THEREOF” (HUMANITAS MIRASOLE S.P.A., priority 2020, published 2023)
